The source of these data is US8703114B2, “Conjugate of a polymer, an anti-angiogenesis agent and a targeting moiety, and uses thereof in the treatment of bone related angiogenesis conditions” (priority 2008, dated 2014).

In data set [1] the test system is Saos-2 human osteosarcoma cells. Put plainly: Saos-2 cell proliferation assay. It counts as cell-based.
Experimental: (§1) Human osteosarcoma Saos-2 or MG-63-Ras cells were plated at 2500 cells/well in DMEM supplemented with 5 FBS and incubated for 24 hours (37° C.; 5% CO2). The medium was then replaced with DMEM supplemented with 10% FBS. Cells were exposed to ALN, TNP-470, and HPMA copolymer-ALN-TNP-470 conjugate or with equivalent concentrations of combinations of free ALN and TNP-470 at serial dilutions. […] Control cells were grown in the presence or absence of growth factors. HUVEC or Saos-2 viable cells were counted by a Z1 Coulter® Particle Counter (Beckman Coulter™) or by XTT reagent respectively after 72 hours of incubation.
Data set [2] relates to HUVEC. Nature of the data set: HUVEC cell proliferation assay. The settings on record: for IC30 of HUVEC proliferation / IC70 of HUVEC proliferation: single treatment. The protocol:
HUVEC were plated at 10,000 cells/well onto 24-well culture plates in EBM-2 supplemented with 5% FBS and incubated for 24 hours (37° C.; 5% CO2). Medium was replaced with 2.5% endothelial cell basal medium-2 (EBM-2) supplemented with 1% Endothelial cell growth supplement (ECGS). Human osteosarcoma Saos-2 or MG-63-Ras cells were plated at 2500 cells/well in DMEM supplemented with 5 FBS and incubated for 24 hours (37° C.; 5% CO2). The medium was then replaced with DMEM supplemented with 10% FBS. Cells were exposed to ALN, TNP-470, and HPMA copolymer-ALN-TNP-470 conjugate or with equivalent concentrations of combinations of free ALN and TNP-470 at serial dilutions. HUVEC were also incubated with or without 1 μM of cathepsin-K inhibitor III. Control cells were grown in the presence or absence of growth factors. HUVEC or Saos-2 viable cells were counted by a Z1 Coulter® Particle Counter (Beckman Coulter™) or by XTT reagent respectively after 72 hours of incubation.
IC50 represents the concentration of a drug that is required for 50% inhibition in vitro. The IC30, 50, 70 values of treatment with ALN, TNP-470 and their respective combinations from HUVEC proliferation assay were collected. IC30, 50, 70 values of TNP-470 and ALN were marked on X, Y axis respectively and a line which represents additive effect was drawn between each inhibitory concentration (IC). The combination index (CI) of each treatment was calculated according to the classic isobologram equation CI=[(D)1/(Dx)1]+[(D)2/(Dx)2] as previously described [Chou T. C. Pharmocol Rev 2006; 58:621-681]. Area on the right side of each IC additive line represents antagonist effect while the left side represents synergic effect.

Data set [3] deals with HUVEC. Put plainly: HUVEC migration assay towards VEGF. It counts as cell-based, human. As to the method:
Cell migration assays were performed using modified 8 μm Boyden chambers coated with 10 μg/ml fibronectin. […] Following incubation, cells were allowed to migrate to the underside of the chamber for 4 hours in the presence or absence of Vascular endothelial growth factor (VEGF) (20 ng/ml) in the lower chamber. Cells were then fixed with ice-cold […] and stained using Hema 3 Stain System. The stained migrated cells were imaged using Nikon TE2000E inverted microscope integrated with Nikon DS5 cooled CCD camera by 10× objective, brightfield illumination. Migrated cells from the captured images per membrane were counted using NIH image software. Migration was normalized to percent migration, with 100% representing VEGF dependent migration of cells which were not incubated with free or HPMA-conjugated ALN and TNP-470.

Data set [4] deals with MG-63-Ras human osteosarcoma tumors. Nature of the data set: Immunohistochemistry of tumors (H & E, CD34 microvessel density). It counts as in vivo, mice. As to the method:
Immunohistochemistry of tumor nodules was performed using 5 μm thick formalin-fixed, paraffin-embedded tissue sections. Paraffin sections were de-paraffinized, rehydrated, and stained by hematoxylin and eosin (H & E). For CD34 staining (an endothelial cell marker), slides were deparaffinized and pre-treated with 10 mM citrate, pH 6.0 for 50 min in a steam pressure cooker (Decloaking Chamber, BioCare Medical, Walnut Creek, Calif.). All further steps were performed at room temperature in a hydrated chamber. Slides were covered with Peroxidase Block (Merck, Germany) for 5 minutes to quench endogenous peroxidase activity, followed by incubation with 10% of rabbit serum in 50 mM Tris-HCl, pH 7.4, for 30 min to block non-specific binding sites. Primary rat anti-murine CD34 antibody (MEC 14.7 1:50 dilution; Abcam, Cambridge, Mass.) was applied in 1% rabbit serum in Tris-HCl, pH 7.4 at room temperature for 1 hour. Slides were washed in 50 mM TrisHCl, pH 7.4 and rabbit anti-rat antibody (1:750 dilution; Vector Laboratories, CA, USA) was applied for 30 minutes, followed by anti-rabbit horseradish peroxidase-conjugated antibody (ABC detection kit, Vector Laboratories, CA, USA). Following further washing, immunoperoxidase staining was developed using a ImmPACT™ DAB diluent kit (Vector Laboratories, CA, USA) per the manufacturer instructions and counterstained with methyl green. Microvessel density (MVD) was calculated as previously described [Weidner et al. 1991, N Engl J Med 324:1-8].

Data set [5] relates to VEGF-induced extravasation of Evans blue dye. Put plainly: Miles vascular permeability assay. It counts as in vivo, Balb/c mice. As to conditions: 30 mg/kg TNP-470 equivalents s.c., assay three days later. The protocol:
Balb/c male mice were injected subcutaneously (s.c.) with TNP-470, HPMA copolymer-ALN-TNP-470 conjugate (30 mg/kg TNP-470 equivalents) or saline (n=5 mice/group). Three days later, a modified Miles assay was performed as previously described [Claffey et al. 1996, Cancer Res 56: 172-181; Miles & Miles 1952, J Physiol 118:228-257]. Briefly, Evans blue dye (100 μl of a 1% solution in 0.9% NaCl) was injected into the retro-orbital plexus of the mice. Ten minutes later, 50 μl of human VEGF165 (1 ng/μl) or PBS were injected intradermally into the pre-shaved back skin. Twenty minutes later, the animals were killed, and an area of skin that included the entire injection site was removed. Evans blue dye was extracted from the skin by incubation with formamide for 5 days at room temperature, and the absorbance of the extracted dye was measured at 620 nm. Data is expressed as mean±standard error of the mean (s.e.m.).

In data set [6] the test system is mCherry-labeled MG-63-Ras human osteosarcoma. Nature of the data set: Antitumor activity on MG-63-Ras human osteosarcoma in mice. It counts as in vivo, SCID mice. As to conditions: day 19, 30 mg/kg q.o.d. 3 times s.c. The protocol: SCID male were inoculated s.c. with 5×10^5 mCherry-labeled MG-63-Ras human osteosarcoma. Mice bearing 70 mm^3 tumors were injected s.c. with combination of free ALN and TNP-470 (1:1, 30 mg/kg), FITC-labeled HPMA copolymer-ALN-TNP-470 conjugate (30 mg/kg q.o.d.×3 times TNP-470-equivalent dose) or saline (n=5 mice/group). Therapy was initiated at a relatively early state (70 mm^3) in order to imitate a metastatic scenario as well as an early primary osteosarcoma. Tumor progression was monitored by caliper measurement (width×length^2×0.52) and by CRI™ Maestro non-invasive intravital imaging system. At termination, tumors were dissected, weighed and analyzed. Data is expressed as mean±standard error of the mean (s.e.m.).
CRI Maestro™ non-invasive fluorescence imaging system was used to follow tumor progression of mice bearing mCherry-labeled MG-63-Ras human osteosarcoma tumors and for biodistribution studies of FITC-labeled HPMA copolymer-ALN-TNP-470 conjugate. Mice were maintained on a non-fluorescent diet (Harlan) for the whole period of the experiment. Mice were anesthetized using ketamine (100 mg/kg) and xylazine (12 mg/kg), treated with a depilatory cream (Veet®) and placed inside the imaging system. Alternatively, selected organs from mice were dissected and placed inside the imaging system. […]

For data set [7], the system named is HUVEC. Nature of the data set: Capillary-like tube formation assay. It counts as cell-based, human. The protocol:
The surface of 24-well plates was coated with Matrigel® basement membrane (50 μl/well; 10 mg/ml) on ice and was allowed to polymerize at 37° C. for 30 minutes. […] After 8 hours of incubation (37° C.; 5% CO2), wells were imaged using Nikon TE2000E inverted microscope integrated with Nikon DS5 cooled CCD camera by 4× objective, brightfield illumination. […]

The test system of data set [8] is MG-63-Ras human osteosarcoma cells. Nature of the data set: MG-63-Ras cell proliferation assay. It counts as cell-based.
Experimental: as §1
Data set [9] is described as follows: Hydroxyapatite binding assay. The settings on record: PBS pH 7.4. As to the method: In order to assess the ability of HPMA copolymer-ALN-TNP-470 conjugate to bind to bone mineral, its binding potency to hydroxyapatite (HA) was evaluated. HPMA copolymer-ALN-TNP-470 conjugate was dissolved in phosphate buffered saline (PBS), pH 7.4 (1 mg/ml). The conjugate solution (500 μl) was incubated with hydroxyapatite powder (15 mg), in 500 μl PBS, pH 7.4. HPMA copolymer-Gly-Phe-Leu-Gly was used as control. Incubated samples were centrifuged at 6000 RPM for 3 minutes and a sample from the upper layer (100 μl) was collected at selected time points. FPLC analysis using HighTrap desalting column (Amersham®) was used for detection of unbound conjugate in the samples (FPLC conditions: AKTA™ Purifier®, mobile phase 100% DDW, 2 ml/minute, 215 nm). Hydroxyapatite binding kinetic analysis of the conjugate was performed using the Unicorn® AKTA™ software. Areas under the curve (AUC) were calculated from chromatographs at each time point. AUC of each hydroxyapatite incubated conjugate chromatogram was normalized to percent AUC of conjugate sample in the absence of hydroxyapatite used as control.

Where [10] appears, read: Homo sapiens, HUVEC, read-out: IC50 of HUVEC proliferation.
[11] abbreviates: equivalent concentration 0.1 nM.

Like-named read-outs stand apart in the source and are kept apart here.

In the case of `NCCCC(O)(P(=O)(O)O)P(=O)(O)O` [ALN, (4-amino-1-hydroxybutylidene)bisphosphonic acid], the “Dose dependence of inhibition of Saos-2 proliferation” value in data set [1] was “inhibited at a dose dependent manner”. For the same compound, in the data set with HUVEC [2], the “Dose dependence of inhibition of ECGS-induced HUVEC proliferation” value is listed as “inhibited at a dose dependent manner”, the “IC30 of HUVEC proliferation” value was 10 µM and the “IC70 of HUVEC proliferation” value was 90 µM. The IC50 in the data set with HUVEC [2] (setting [10]) was 50 µM.
For `CO[C@@H]1[C@H](OC(=O)NC(=O)CCl)CC[C@]2(CO2)[C@H]1[C@@]1(C)O[C@@H]1CC=C(C)C` [TNP-470], the “Inhibition of chemotactic migration response to VEGF” value with HUVEC [3] (equivalent concentrations of 0.1, 1 and 10 nM) is given as “dramatically inhibited”. Also, in the data set with HUVEC [2], the “Inhibition of HUVEC proliferation, free vs conjugated TNP-470” value is “inhibited similarly”; the “IC30 of HUVEC proliferation” value was found to be 2.5e-07 µM; the “IC70 of HUVEC proliferation” value came to 1 µM. Also, in the data set on HUVEC [2] (setting [10]), the IC50 worked out at 0.0001 µM.
“HPMA-Gly-Gly-Pro-Nle-ALN-TNP-470 [HPMA copolymer-ALN-TNP-470 conjugate]”: the IC50 in data set [1] came out at 30 µM; in the data set on HUVEC [2] (read-out: IC50 of ECGS-induced HUVEC proliferation, ALN and TNP-470 equivalent concentrations, 72 hours) it was 0.001 µM; in the data set with HUVEC [2] (read-out: IC50 of HUVEC proliferation in the presence of cathepsin K inhibitor III, 1 μM cathepsin K inhibitor III) it was 4.2 µM; in data set [8], 10 µM. Also, the “Microvessel density (MVD)” value in [4] (CD34 staining) is listed as 32±9 microvessels/mm^2. Further, the “Reduction in microvessel density (MVD) vs control” value in data set [4] (CD34 staining) is recorded as 74%. Besides, the “Tumor histology (H & E)” value in data set [4] (mouse, in vivo) is listed as “almost regressed”. For the same compound, the “Inhibition of chemotactic migration response to VEGF” value with HUVEC [3] (setting [11]) was 18%; in the data set on HUVEC [3] (equivalent concentration 1 nM), 35%; with HUVEC [3] (equivalent concentration 10 nM), 61%. Moreover, the “Inhibition of VEGF-induced extravasation of Evans blue dye vs vehicle” value in [5] is recorded as 92%. The “Cytotoxic effect on HUVEC at doses higher than” value with HUVEC [2] (ALN and TNP-470 equivalent concentrations) is more than 10 nM. For the same compound, the “Concentrations inhibiting HUVEC proliferation in the presence of cathepsin K inhibitor III” value in the data set with HUVEC [2] (ALN-equivalent concentrations, 72 hours) is reported as “higher than 4 μM”. In the data set with HUVEC [2] (higher concentration in presence of inhibitor), the “Shift of concentration inhibiting HUVEC proliferation in presence vs absence of cathepsin K inhibitor III” value is 4 logs. For the same compound, the Tumor growth inhibition in [6] amounted to 96%. The “Inhibition of capillary-like tube length vs untreated control” value was 29% in the data set on HUVEC [7] (equivalent concentration 0.01 nM), 54% with HUVEC [7] (setting [11]) and 64% in the data set on HUVEC [7] (equivalent concentration 1 nM). Moreover, the “Conjugate bound to hydroxyapatite” value is listed as 50% in data set [9] (2 minutes of incubation) and 92% in data set [9] (plateau after 175 minutes of incubation).
